Paper PMC11044151, “Development of Half-Sandwich Ru, Os, Rh, and Ir Complexes Bearing the Pyridine-2-ylmethanimine Bidentate Ligand Derived from 7-Chloroquinazolin-4(3H)-one with Enhanced Antiproliferative Activity” (ACS Omega, 2024)
Where two headings read alike, the source gives them in different places.

Columns and labels:
[1] = system: A549; assay: Neutral red uptake antiproliferative assay, A549; conditions: for IC50: read-out: IC50 A549, exposure time 72 h, n = 3, 95% CI given; for activity factor IC50(1)/IC50(3a–4d), A549: vs corresponding amine (R)-1 or (S)-1, 72 h
From the text: (§1) To assess the impact of conjugating half-sandwich complexes with amines 1 via an imine-pyridine ligand on biological activity, we examined the antiproliferative potential of (R)- and (S)-1 and organometallic conjugates 3a–d and 4a–d in selected human cancer cell lines: alveolar basal epithelial cell adenocarcinoma (A549), colorectal adenocarcinomas (Colo205 and SW620), colorectal carcinoma (HCT116), hepatocellular carcinoma (HepG2), and breast adenocarcinoma (MCF7). The choice of cell lines was dictated by results of previously published clinical trials on ispinesib.[49],[50]
(§2) Cell lines used in this study were purchased from the American Type Culture Collection via LGC Standards. Human normal lung fibroblasts (MRC-5), alveolar basal epithelial cell adenocarcinoma (A549), colorectal adenocarcinoma (Colo205), hepatocellular carcinoma (HepG2), breast adenocarcinoma (MCF7), and colorectal adenocarcinoma (SW620) and its MDR variants[55] were cultured in standard conditions (37 °C, 5% CO2, 100% relative humidity) in high glucose DMEM medium supplemented with GlutaMax, HEPES (ThermoFisher Scientific) and 10% fetal bovine serum (EURx, Poland). All cell lines were tested for Mycoplasma contamination using a MycoProbe mycoplasma detection kit (R&D System).
(§3) For this purpose, neutral red uptake assay was performed. 10^4 of cells were seeded per well of a 96-well plate and left overnight to allow cells to attach to the surface. Then, the cells were exposed to a desired concentration of tested compounds. Stock solutions were prepared in DMSO and were used immediately after preparation. The final concentration of DMSO was constant and nontoxic (0.1% v/v). After 70 h of culture, neutral red was added to the final concentration of 1 mM. After 2 h of incubation with the dye, the medium was aspirated and cells were washed with ice-cold PBS. The dye was released using 100 μL of the solubilizer (1% acetic acid in 50% ethanol) on an orbital shaker (10 min). The absorbance at 540 nm was measured using an EnVision multilabel plate reader (PerkinElmer). […] The IC90 and IC50 parameters were calculated using GraphPad Prism v9 software using the five-parameter nonlinear logistic regression model.

[2] = system: Colo205; assay: cells; conditions: for IC50: read-out: IC50 Colo205, exposure time 72 h, n = 3, 95% CI given; for activity factor IC50(1)/IC50(3a–4d), Colo205: vs corresponding amine (R)-1 or (S)-1, 72 h
From the text: as §1, §2, §3

[3] = system: HepG2; assay: cells; conditions: for IC50: read-out: IC50 HepG2, exposure time 72 h, n = 3, 95% CI given; for activity factor IC50(1)/IC50(3a–4d), HepG2: vs corresponding amine (R)-1 or (S)-1, 72 h
From the text: as §1, §2, §3

[4] = system: MCF7; assay: cells; conditions: for IC50: read-out: IC50 MCF7, exposure time 72 h, n = 3, 95% CI given; for activity factor IC50(1)/IC50(3a–4d), MCF7: vs corresponding amine (R)-1 or (S)-1, 72 h
From the text: as §1, §2, §3

[5] = system: SW620C; assay: Neutral red uptake antiproliferative assay, MDR line SW620C; format: cell-based, human; conditions: for IC50: exposure time 72 h, n = 3, ABCG2-overexpressing MDR line; for activity factor IC50(1)/IC50(3a–4d), SW620C: vs corresponding amine (R)-1 or (S)-1, 72 h
From the text: Next, we evaluated the cytotoxicity of the synthesized complexes toward the panel of six multidrug-resistant (MDR) cell lines derived from SW620 and characterized by the overexpression of various ABC proteins, namely, ABCG2 (SW620C and SW620Mito), ABCC1 (SW620M and SW620E), and ABCB1 (SW620D, SW620E, and SW620V) (Table 3, Figures S29 and S32). […] The activity of the complexes derived from the ligand (S)-2 is also considerably higher than that of the compounds containing the ligand (R)-2. The cytotoxicity of both rhodium 4c and iridium 4d complexes is higher than that of amine (S)-1. In the case of 4c, the increase in cytotoxicity is low, with the highest value of 3.7-fold for the SW620Mito line. […] Compound 4d also exerts a 2.1- and 2.6-fold higher cytotoxicity than […] against the SW620C and SW620D lines.
For this purpose, neutral red uptake assay was performed. […] The results were presented as a percentage of control.

[6] = biological target: T1, KSP (Homo sapiens, UniProt P52732); assay: Kinesin ATPase inhibition (ATP hydrolysis) end-point assay; format: biochemical; conditions: for KSP residual activity: 100 nM stated for ispinesib and (R)-1, concentration not restated for the complexes
T1 construct: purchased Cytoskeleton, Inc
T1 sequence (P52732 1-368 limits assumed): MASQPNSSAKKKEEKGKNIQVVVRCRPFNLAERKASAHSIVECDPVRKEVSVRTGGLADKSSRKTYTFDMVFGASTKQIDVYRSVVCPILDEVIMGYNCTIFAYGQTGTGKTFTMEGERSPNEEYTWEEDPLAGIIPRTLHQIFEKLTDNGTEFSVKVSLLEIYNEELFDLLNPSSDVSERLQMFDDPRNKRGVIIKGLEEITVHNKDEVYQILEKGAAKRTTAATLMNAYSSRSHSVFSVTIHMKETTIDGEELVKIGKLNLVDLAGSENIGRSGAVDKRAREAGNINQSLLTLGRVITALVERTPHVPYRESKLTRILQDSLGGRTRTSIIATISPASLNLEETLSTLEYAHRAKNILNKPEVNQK
Method: The mechanism of the anticancer activity of ispinesib is related to the inhibition of the activity of the KSP. Thus, we studied the synthesized compounds’ ability to inhibit KSP activity using the adenosine 5′-triphosphate (ATP) hydrolysis assay.
The potential kinesin modulatory activity of tested compounds was performed using a Kinesin ATPase end-point biochem kit (Cytoskeleton, Inc.). […] The experiment was performed according to the manufacturer’s instructions. One μg of tested kinesin (KSP) was used per reaction. Phosphate release was measured at the absorbance 650 nm using an EnVision multilabel plate reader (PerkinElmer).

[7] = Stability study in the presence of L-histidine (UV-vis, HPLC-MS); format: physicochemical; conditions: 20 μM complex, 0.2 mM L-histidine in water, 0.5 vol % DMSO, followed over 2 h
From the text: For biological studies, compounds are commonly administered as dimethyl sulfoxide (DMSO) solution to cells cultured in a specific medium such as Dulbecco’s modified Eagle’s medium (DMEM). DMEM consists of numerous organic compounds which may act as ligands for organometallics. Therefore, it is important to know how the compounds behave in such conditions. The two most prominent components of DMEM which may coordinate to half-sandwich complexes are L-cysteine and L-histidine. Both of those amino acids are present in DMEM at 0.2 mM concentration, so we studied how the complexes interact with them using UV–vis spectroscopy and HPLC-MS analysis. The DMSO solutions of complexes were added to the aqueous solution of L-cysteine or L-histidine to achieve a complex concentration of 20 μM while keeping the DMSO concentration at 0.5 vol %. […] HPLC-MS analysis confirmed the formation of an additional peak at τ = 0.95 min with m/z 714 assigned to [M-Cl-PF6 + HCOOH]^+; additionally, the intensity of peaks corresponding to 3c is lower (Figure S26). […] The intensity of absorbance peaks at λ = 287 and λ = 372 nm in the presence of cysteine is decreasing, while the intensity of peaks at λ = 304 and λ = 318 nm is almost intact.
The stability of 3a–d was studied in the presence of L-cysteine or L-histidine. 3a–d were dissolved in DMSO and added to 0.2 mM aqueous solution of L-cysteine or L-histidine to achieve the complex concentration of 20 μM while keeping the DMSO concentration at 0.5 vol %. UV–vis spectra were recorded over 2 h with 10 min intervals.

With `CC(C)[C@@H](N=Cc1ccccn1)c1nc2cc(Cl)ccc2c(=O)n1Cc1ccccc1.Cc1c(C)c(C)[c-](C)c1C.F[P-](F)(F)(F)(F)F.[Cl-].[Ir+3]` [Compound 3d, [(Cp*)Ir((R)-2)Cl]PF6] the IC50 [1] was 1130 nM, the “increased cytotoxicity vs corresponding amine 1, A549” value (“increased cytotoxicity … A549” for short) ([1]; rounded value) was 2 fold and the “activity factor IC50(1)/IC50(3a–4d), A549” value [1] was “(1.96)”. The IC50 [2] was 524 nM, the “activity factor IC50(1)/IC50(3a–4d), Colo205” value [2] was “(0.204)” and the IC50 [3] was 454 nM. For the same molecule, the “activity factor IC50(1)/IC50(3a–4d), HepG2” value [3] was “(1.25)”, the IC50 [4] was 653 nM and the “activity factor IC50(1)/IC50(3a–4d), MCF7” value [4] was “(0.354)”. For the same molecule, the IC50 [5] was 335 nM, the “higher cytotoxicity than corresponding amine 1, SW620C” value ([5]; rounded value) was 2.2 fold and the “activity factor IC50(1)/IC50(3a–4d), SW620C” value [5] was “(2.15)”. For the same molecule, the KSP residual activity [6] was 64.0% and the “reaction with L-histidine (stability)” value [7] was “reacts with both L-cysteine and L-histidine (Figure 6) in 40 min”.
With `CC(C)[C@@H](N=Cc1ccccn1)c1nc2cc(Cl)ccc2c(=O)n1Cc1ccccc1.Cc1ccc(C(C)C)cc1.F[P-](F)(F)(F)(F)F.[Cl-].[Os+2]` [Compound 3b, [(cym)Os((R)-2)Cl]PF6] the “increased cytotoxicity … A549” value [1] was 2 fold, the IC50 [1] was 1040 nM and the “activity factor IC50(1)/IC50(3a–4d), A549” value [1] was “(2.12)”. The IC50 [2] was 448 nM, the “activity factor IC50(1)/IC50(3a–4d), Colo205” value [2] was “(0.239)” and the “increased cytotoxicity vs corresponding amine 1, HepG2” value [3] was 3 fold. The IC50 [3] was 188 nM, the “activity factor IC50(1)/IC50(3a–4d), HepG2” value [3] was “(3.01)” and the “increased cytotoxicity vs corresponding amine 1, MCF7” value [4] was 3 fold. For the same molecule, the IC50 [4] was 73 nM, the “activity factor IC50(1)/IC50(3a–4d), MCF7” value [4] was “(3.16)” and the IC50 [5] was 1170 nM. For the same molecule, the “activity factor IC50(1)/IC50(3a–4d), SW620C” value [5] was “(0.616)”, the KSP residual activity [6] was 71.8% and the “reaction with L-histidine (stability)” value [7] was “neither ruthenium 3a nor the osmium complex 3b reacts with those amino acids within 2 h”.
With `CC(C)[C@@H](N=Cc1ccccn1)c1nc2cc(Cl)ccc2c(=O)n1Cc1ccccc1.Cc1c(C)c(C)[c-](C)c1C.F[P-](F)(F)(F)(F)F.[Cl-].[Rh+3]` [Compound 3c, [(Cp*)Rh((R)-2)Cl]PF6] the IC50 [1] was 1160 nM, the “increased cytotoxicity … A549” value ([1]; rounded value) was 2 fold and the “activity factor IC50(1)/IC50(3a–4d), A549” value [1] was “(1.90)”. The IC50 [2] was 138 nM, the “activity factor IC50(1)/IC50(3a–4d), Colo205” value [2] was “(0.775)” and the IC50 [3] was 689 nM. The “activity factor IC50(1)/IC50(3a–4d), HepG2” value [3] was “(0.821)”, the IC50 [4] was 357 nM and the “activity factor IC50(1)/IC50(3a–4d), MCF7” value [4] was “(0.647)”. The IC50 [5] was 592 nM, the “activity factor IC50(1)/IC50(3a–4d), SW620C” value [5] was “(1.22)” and the KSP residual activity [6] was 47.5%. The “reaction with L-histidine (stability)” value [7] was “A similar effect is observed in the case of L-histidine”.
For `CC(C)[C@@H](N=Cc1ccccn1)c1nc2cc(Cl)ccc2c(=O)n1Cc1ccccc1.Cc1ccc(C(C)C)cc1.F[P-](F)(F)(F)(F)F.[Cl-].[Ru+2]` [Compound 3a, [(cym)Ru((R)-2)Cl]PF6], the IC50 [1] was 2450 nM, the “activity factor IC50(1)/IC50(3a–4d), A549” value [1] was “(0.902)” and the IC50 [2] was 1260 nM. For the same molecule, the “activity factor IC50(1)/IC50(3a–4d), Colo205” value [2] was “(0.085)”, the IC50 [3] was 1570 nM and the “activity factor IC50(1)/IC50(3a–4d), HepG2” value [3] was “(0.360)”. For the same molecule, the IC50 [4] was 858 nM, the “activity factor IC50(1)/IC50(3a–4d), MCF7” value [4] was “(0.269)” and the IC50 [5] was 4380 nM. For the same molecule, the “activity factor IC50(1)/IC50(3a–4d), SW620C” value [5] was “(0.165)”, the “KSP inhibitory activity (in words)” value ([6]; 100, 300 and 1000 nM) was “nonactive” and the “reaction with L-histidine (stability)” value [7] was “neither ruthenium 3a nor the osmium complex 3b reacts with those amino acids within 2 h”.
